Measurements reported in article PMC3092815 (Proteins, 2011).

Experiments:
[1] = molecular target: T1, C. perfringens PepcA (archaeal-type phosphoenolpyruvate carboxylase) (Clostridium perfringens, UniProt Q8XLE8)
[2] = molecular target: T1, C. perfringens PepcA (archaeal-type phosphoenolpyruvate carboxylase); test: biochemical

**Q.** Which Km [1] does the source give for Mg^++.PEP here?
**A.** 60 µM

**Q.** With `N[C@@H](CC(=O)O)C(=O)O` [aspartate] as the molecule, how does the Ki [2] read?
**A.** 200 µM
